Experimental data taken from patent US9932339B2, “Helquats with heteroaromatic substituents, preparation thereof, and use thereof as G-quadruplex stabilizers” (USTAV ORGANICKE CHEMIE A BIOCHEMIE AV CR, V.V.I., priority 2014, dated 2018).

Experiments:
[1] = test system: G-quadruplex oligonucleotide Fmyc27T (NHE III1 promoter region of c-myc oncogene); assay: FRET melting of G-quadruplex oligonucleotide Fmyc27T with ligands; assay type: binding; conditions: for ΔTm (° C.) Fmyc27T/ds26 (° C.): helquat 1 μmol·l^−1, oligonucleotide 0.2 μmol·l^−1, 50-fold excess of double-stranded competitor ds26; for ΔTm (° C.) Fmyc27T: helquat 1 μmol·l^−1, oligonucleotide 0.2 μmol·l^−1, without competitor
Description: To determine the degree of in vitro interactions of helquats with G-quadruplex(es), the oligonucleotides containing the guanine-rich sequences of human telomere (F21T) and NHE III1 promoter region of c-myc oncogene (Fmyc27T) were used. Both oligonucleotides capable of forming an intramolecular G-quadruplex were end-labeled with suitable fluorophores so as to form donor-acceptor FRET pair (5′-FAM and 3′-TAMRA). If the oligonucleotide is folded into the structure of the G-quadruplex, donor is in close proximity of acceptor and radiationless energy transfer to the acceptor occurs. With increasing temperature of the reaction mixture G-quadruplex structure gradually denatures and thus the donor and acceptor (FAM-TAMRA) drift apart. This leads to an increase in fluorescence of donor (FAM) and a decrease in fluorescence of acceptor (TAMRA).
The result of measurement is the curve of dependence of the intensity of fluorescence of the donor on the temperature. If the G-quadruplex is stabilized by ligand, melting temperature will increase. Melting temperature of G-quadruplex corresponds to the temperature when 50% of the original amount of the folded G-quadruplex is denatured. The measurement outcome is the difference in the melting temperatures (ΔTm) of the G-quadruplex alone and the G-quadruplex stabilized by ligand. In case of Fmyc27T experiments were performed in cacodylate buffer (10 mmol·l^−1, pH=7.2) with KCl (5 mmol·l^−1) and LiCl (95 mmol·l^−1) oligonucleotide and in case of F21T oligonucleotide in cacodylate buffer (10 mmol·l^−1, pH=7.2) with KCl (25 mmol·l^−1) and LiCl (75 mmol·l^−1).
Both oligonucleotides were denatured for 5 minutes at 95° C. and subsequently allowed to cool to room temperature (3 hours) in the switched-off thermoblock. The final oligonucleotide concentration in the reaction mixture was 0.2 μmol·l^−1. Test helquats were present at concentrations of 1 μmol·l^−1. The total reaction volume was 30 μl. The melting temperature of the oligonucleotides alone (without the presence of helquats) under these conditions was 58.1±0.2° C. for F21T and 64.7±0.4° C. for Fmyc27T. For determining the selectivity of binding of helquats to G-quadruplex in comparison with the double-stranded DNA, 50-fold excess of double-stranded DNA ([…] unlabeled competitor ds26 forming a hairpin) is added to the reaction mixture. After the addition to the reaction mixture ds26 competes with labeled oligonucleotide (Fmyc27T or F21T) for ligand binding. […] Melting temperature of oligonucleotides alone in the presence of the competitor is 59.4±0.5° C. for F21T and 66.3° C.±0.6° C. for Fmyc27T.
Fluorescence of FAM donor was measured using real-time PCR apparatus Opticon 2 (excitation 470-505 nm and emission 523-543 nm) in temperature increments of 0.5° C. in the range 25 to 95° C. Evaluation of the sigmoid curves of fluorescence intensity dependent on the temperature were performed in GraphPad Prism 5 (GraphPad Software, Inc., USA). Using nonlinear five parametric regression the inflection point on the curve was calculated that corresponds to the melting temperature (Tm) of the G-quadruplex under the given conditions. The values were obtained from at least three independent measurements.

[2] = test system: c-myc protein; assay: Immunodetection of protein c-myc in HGC-27 cell lysates (Western blot); assay type: cell-based, human; conditions: 50 μmol · l^−1, 24 hour incubation, normalized to β-actin
In short: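 HGC-27 cells seeded at 25,000 cells/cm^2, treated next day with 50 μmol·l^−1 helquat for 24 h. RIPA lysates separated by 12% SDS-PAGE, blotted and probed for c-myc with β-actin loading control; chemiluminescence densitometry, c-myc normalized to β-actin and expressed relative to untreated control.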

Row | SMILES | ΔTm (° C.) Fmyc27T/ds26 (° C.) [1] | ΔTm (° C.) Fmyc27T [1] | c-myc protein expression relative to control (control = 100%) [2]
1 | O=[N+]([O-])c1cccc2[nH]cc(/C=C/c3cc[n+]4c(c3)-c3c(ccc5c3-c3cccc[n+]3CC5)CC4)c12 (racemic) [LSA-C9-32, (rac)-(E)-2-(2-(4-nitro-1H-indol-3-yl)vinyl)-6,7,10,11-tetrahydrodipyrido[2,1-a:1′,2′-k][2,9]phenanthroline-5,12-diium trifluoromethanesulfonate] | 8.1 °C | 10.4 °C | –
2 | Cc1c(C)c2c(c3c1CC[n+]1ccc(/C=C/c4cccc5c4oc4ccccc45)cc1-3)-c1c3ccccc3cc[n+]1CC2 (racemic) [MJA-C13-8, (rac)-(E)-13-(2-(dibenzo[b,d]furan-4-yl)vinyl)-6,7-dimethyl-4,5,8,9-tetrahydroisoquinolino[1,2-a]pyrido[1,2-k][2,9]phenanthroline-3,10-diium trifluoromethanesulfonate] | 4.9 °C | 11.0 °C | 58%
3 | C(=C\c1cccc2c1oc1ccccc12)/c1cc[n+]2c(c1)-c1c(ccc3c1-c1c4ccccc4cc[n+]1CC3)CC2.O=S(=O)([O-])C(F)(F)F.O=S(=O)([O-])C(F)(F)F [MSB-C13-8, (E)-13-(2-(dibenzo[b,d]furan-4-yl)vinyl)-4,5,8,9-tetrahydroisoquinolino[1,2-a]pyrido[1,2-k][2,9]phenanthroline-3,10-diium trifluoromethanesulfonate] | 7.7 °C | 12.6 °C | –
4 | Brc1ccc2[nH]cc(/C=C/c3cc4ccccc4[n+]4c3-c3c(ccc5c3-c3cccc[n+]3CCC5)CCC4)c2c1.O=S(=O)([O-])C(F)(F)F.O=S(=O)([O-])C(F)(F)F [MSC-C9-30, 19-((E)-2-(5-bromo-1H-indol-3-yl)vinyl)-6,7,8,11,12,13-hexahydropyrido[1′″,2′″:1″,2″]azepino[4″,3″:5′,6′]benzo[1′,2′:3,4]azepino[1,2-a]quinoline-5,14-diium trifluoromethanesulfonate] | – | – | 14%
5 | C(=C\c1c(-c2ccccc2)[nH]c2ccccc12)/c1cc2ccccc2[n+]2c1-c1c(ccc3c1-c1cccc[n+]1CCC3)CCC2.O=S(=O)([O-])C(F)(F)F.O=S(=O)([O-])C(F)(F)F [MSC-C15-8, 19-((E)-2-(2-phenyl-1H-indol-3-yl)vinyl)-6,7,8,11,12,13-hexahydropyrido[1′″,2′″:1″,2″]azepino[4″,3″:5′,6′]benzo[1′,2′:3,4]azepino[1,2-a]quinoline-5,14-diium trifluoromethanesulfonate] | – | – | 58%
